Measured values published in PubChem BioAssay AID302 (DTP/NCI, 2004).
Where “and” joins values, the source holds several entries; their conditions need not be identical. Identical values can stand only once. Toxic doses and inconclusive results are not listed. The calls were made as follows: active = survival T/C of 150% or more; inactive = T/C below 125% in these data. Starred links: 1 amine or outer side, 2 acyl side, 3 side chain; linkers in the order of their positions; H or OH if unused. Positions of bridges follow the written chain, without caps; N, C: chain ends. Non-standard residues stand in square brackets, D forms with d. Residues, ends and D or L forms follow the SMILES beside them. Chains are numbered I, II in the order given. Actinocin(9to1) = Cc1c2oc3c(C)ccc(C(=O)[*:1])c3nc-2c(C(=O)[*:2])c(N)c1=O; aThr = C[C@H](O)[C@H](N)C(=O)O; NMeV = CN[CH](C(=O)O)C(C)C; Sar = CNCC(=O)O

System: BALB/c mice, Madison 109 lung carcinoma i.m., survival
Assay: NCI In Vivo Anticancer Drug Screen. Data for tumor model Madison 109 Lung Carcinoma (intramuscular) in BALB/CM mice
Conditions: endpoint: median survival time, schedule: Q01DX009 (ip), higher = longer survival
Procedure: The antitumor activity of compounds was measured in mice bearing transplantable tumors. Survival or tumor size were measured and the results are expressed as the measurement made in the treated group (T) divided by the measurement made in the vehicle treated control group (C). The tumor model used in this assay is Madison 109 Lung Carcinoma (intramuscular) in BALB/CM mice

[1] = dose: 0.12 mg/kg/injection, vehicle: saline
[2] = dose: 0.25 mg/kg/injection, vehicle: saline
[3] = dose: 0.5 mg/kg/injection, vehicle: saline
[4] = dose: 2.0 mg/kg/injection, vehicle: saline
[5] = dose: 25.0 mg/kg/injection, vehicle: saline with Tween-80
[6] = dose: 50.0 mg/kg/injection, vehicle: saline with Tween-80
[7] = dose: 100.0 mg/kg/injection, vehicle: saline with Tween-80
[8] = dose: 200.0 mg/kg/injection, vehicle: saline with Tween-80
[9] = dose: 12.5 mg/kg/injection, vehicle: saline with Tween-80
[10] = dose: 400.0 mg/kg/injection, vehicle: saline with Tween-80
[11] = dose: 3.12 mg/kg/injection, vehicle: saline with Tween-80
[12] = dose: 6.25 mg/kg/injection, vehicle: saline with Tween-80
[13] = dose: 1.0 mg/kg/injection, vehicle: saline
[14] = dose: 4.0 mg/kg/injection, vehicle: saline with Tween-80
[15] = dose: 4.0 mg/kg/injection, vehicle: saline
[16] = dose: 8.0 mg/kg/injection, vehicle: saline with Tween-80
[17] = dose: 8.0 mg/kg/injection, vehicle: saline
[18] = dose: 16.0 mg/kg/injection, vehicle: saline
[19] = dose: 32.0 mg/kg/injection, vehicle: saline with Tween-80
[20] = dose: 64.0 mg/kg/injection, vehicle: saline with Tween-80
[21] = dose: 128.0 mg/kg/injection, vehicle: saline with Tween-80
[22] = dose: 256.0 mg/kg/injection, vehicle: saline with Tween-80
[23] = dose: 512.0 mg/kg/injection, vehicle: saline with Tween-80

Measured: T/C

COc1ccc(CC2C(=O)NC(C)C(=O)N(C)C3C(=O)N(C)C(Cc4ccc(O)c(c4)Oc4ccc(cc4)C3O)C(=O)NC(C)C(=O)NC(C)C(=O)N2C)cc1 (configuration not stated)
inactive: [1] 110 % of control | [2] 113 % of control | [3] 113 % of control | [4] 103 % of control

CCOC(=O)CC(SP(=S)(OC)OC)C(=O)OCC (configuration not stated)
inactive: [5] 108 % of control | [6] 112 % of control | [7] 121 % of control | [8] 96 % of control

Nc1ccc(S(=O)(=O)c2ccc(N)cc2)cc1
inactive: [9] 102 % of control | [5] 103 % of control and 115 % of control | [6] 113 % of control and 117 % of control | [7] 112 % of control | [8] 96 % of control and 102 % of control | [10] 108 % of control

ClC(Cl)=C(Cl)Cl
inactive: [6] 119 % of control | [7] 113 % of control | [8] 107 % of control

Cc1cc(N(CC(C)Br)CC(C)Br)ccc1N=Nc1ccccc1C(=O)O (configuration not stated)
inactive: [11] 110 % of control | [12] 105 % of control | [9] 113 % of control

Cc1c2oc3c(C)ccc(C(=O)NC4C(=O)NC(C(C)C)C(=O)N5CCCC5C(=O)N(C)CC(=O)N(C)C(C(C)C)C(=O)OC4C)c3nc-2c(C(=O)NC2C(=O)NC(C(C)C)C(=O)N3CCCC3C(=O)N(C)CC(=O)N(C)C(C(C)C)C(=O)OC2C)c(N)c1=O (configuration not stated) (I: TVP[Sar][NMeV] / II: TVP[Sar][NMeV]; ester I:1-I:C, II:1-II:C; linker I:N-II:N via Actinocin(9to1); configuration not given here)
inactive: dose: 0.03 mg/kg/injection, vehicle: saline 101 % of control | dose: 0.06 mg/kg/injection, vehicle: saline 107 % of control | [1] 101 % of control | [2] 119 % of control

O=c1ccc2ccccc2o1
inactive: [5] 118 % of control | [6] 105 % of control and 111 % of control | [7] 100 % of control and 111 % of control | [8] 113 % of control

O=C1c2ccccc2C(=O)c2c(NCCNCCO)ccc(NCCNCCO)c21
inactive: [3] 116 % of control | [13] 119 % of control | [4] 102 % of control and 117 % of control | [14] 107 % of control and 115 % of control | [15] 117 % of control and 121 % of control | [16] 100 % of control and 118 % of control | [17] 113 % of control and 119 % of control | [18] 111 % of control

ClC1C(Cl)C(Cl)C(Cl)C(Cl)C1Cl (configuration not stated)
inactive: [5] 116 % of control | [7] 119 % of control | [10] 86 % of control

Cc1c[nH]c(=O)[nH]c1=O
inactive: [19] 115 % of control and 118 % of control | [20] 97 % of control and 112 % of control | [21] 86 % of control and 115 % of control | [22] 106 % of control and 118 % of control | [23] 101 % of control and 102 % of control

CN(C)/N=N/c1nc[nH]c1C(N)=O
inactive: [5] 124 % of control | [6] 119 % of control | [7] 108 % of control

Nc1ncnc2nc[nH]c12
inactive: dose: 2.0 mg/kg/injection, vehicle: saline with Tween-80 120 % of control | [14] 119 % of control | [16] 101 % of control and 108 % of control | dose: 16.0 mg/kg/injection, vehicle: saline with Tween-80 90 % of control and 117 % of control and 120 % of control

O=c1cc[nH]c(=O)[nH]1
inactive: [19] 95 % of control and 110 % of control | [20] 96 % of control and 110 % of control | [21] 102 % of control and 105 % of control | [22] 100 % of control and 110 % of control | [23] 94 % of control and 107 % of control

Cc1c2oc3c(C)ccc(C(=O)N[C@@H]4C(=O)N[C@H](C(C)C)C(=O)N5CCC[C@H]5C(=O)N(C)CC(=O)N(C)[C@@H](C(C)C)C(=O)O[C@H]4C)c3nc-2c(C(=O)N[C@@H]2C(=O)N[C@H](C(C)C)C(=O)N3CCC[C@H]3C(=O)N(C)CC(=O)N(C)[C@@H](C(C)C)C(=O)O[C@H]2C)c(N)c1=O (I: [aThr][dV]P[Sar][NMeV] / II: [aThr][dV]P[Sar][NMeV]; ester I:1-I:C, II:1-II:C; linker I:N-II:N via Actinocin(9to1))
inactive: dose: 0.01 mg/kg/injection, vehicle: saline 111 % of control | dose: 0.02 mg/kg/injection, vehicle: saline 116 % of control | dose: 0.05 mg/kg/injection, vehicle: saline 101 % of control

CC(C)NCC(O)COc1cccc2ccccc12 (configuration not stated)
inactive: [14] 111 % of control | [19] 124 % of control | [20] 120 % of control

Nc1n[nH]c(N)n1
inactive: [7] 93 % of control | [8] 101 % of control | [10] 104 % of control | dose: 800.0 mg/kg/injection, vehicle: saline with Tween-80 110 % of control | dose: 1600.0 mg/kg/injection, vehicle: saline with Tween-80 108 % of control

N=C(N)c1ccc(/C=C/c2ccc(C(=N)N)cc2)cc1
inactive: [14] 106 % of control | [16] 109 % of control | [19] 119 % of control | [20] 116 % of control

O=C1C2(Cl)C3(Cl)C4(Cl)C(Cl)(Cl)C5(Cl)[C@]3(Cl)C1(Cl)[C@]5(Cl)C24Cl (some centres not stated)
inactive: [11] 112 % of control | [12] 118 % of control | [9] 121 % of control

Nc1ccc(S(N)(=O)=O)cc1
inactive: [5] 95 % of control | [6] 108 % of control and 115 % of control | [7] 119 % of control | [8] 105 % of control and 119 % of control | [10] 102 % of control and 113 % of control

NC(C/[N+]([O-])=N/O)C(=O)O (configuration not stated)
inactive: [4] 96 % of control | [15] 116 % of control | [17] 93 % of control | [18] 118 % of control | dose: 32.0 mg/kg/injection, vehicle: saline 99 % of control

O=C1c2c(O)ccc(O)c2C(=O)c2c(NCCNCCO)ccc(NCCNCCO)c21
inactive: [1] 108 % of control | [2] 117 % of control | [3] 123 % of control | [13] 123 % of control

CC(=O)c1cccc(NC2C(N)C(NC(=O)N(C)C)(C(C)O)C(C)(O)C2(O)COC(=O)c2c(C)cccc2O)c1 (configuration not stated)
inactive: dose: 0.3 mg/kg/injection, vehicle: saline 98 % of control | dose: 0.6 mg/kg/injection, vehicle: saline 100 % of control | dose: 1.2 mg/kg/injection, vehicle: saline 103 % of control

CNNCc1ccc(C(=O)NC(C)C)cc1
inactive: dose: 25.0 mg/kg/injection, vehicle: saline 116 % of control | dose: 100.0 mg/kg/injection, vehicle: saline 114 % of control

ClC1=C(Cl)C2(Cl)C3C(Cl)C(Cl)CC3C1(Cl)C2(Cl)Cl (configuration not stated)
inactive: [12] 110 % of control and 113 % of control | [9] 100 % of control and 120 % of control | [5] 89 % of control and 95 % of control | [6] 102 % of control and 116 % of control
